This note sets out measurements from patent US7605156B2, “Methods for the use of inhibitors of cytosolic phospholipase A2” (Wyeth, priority 2001, dated 2009).

This experiment deals with T1, cPLA2 (Homo sapiens, UniProt P47712).
T1 sequence (P47712 1-749): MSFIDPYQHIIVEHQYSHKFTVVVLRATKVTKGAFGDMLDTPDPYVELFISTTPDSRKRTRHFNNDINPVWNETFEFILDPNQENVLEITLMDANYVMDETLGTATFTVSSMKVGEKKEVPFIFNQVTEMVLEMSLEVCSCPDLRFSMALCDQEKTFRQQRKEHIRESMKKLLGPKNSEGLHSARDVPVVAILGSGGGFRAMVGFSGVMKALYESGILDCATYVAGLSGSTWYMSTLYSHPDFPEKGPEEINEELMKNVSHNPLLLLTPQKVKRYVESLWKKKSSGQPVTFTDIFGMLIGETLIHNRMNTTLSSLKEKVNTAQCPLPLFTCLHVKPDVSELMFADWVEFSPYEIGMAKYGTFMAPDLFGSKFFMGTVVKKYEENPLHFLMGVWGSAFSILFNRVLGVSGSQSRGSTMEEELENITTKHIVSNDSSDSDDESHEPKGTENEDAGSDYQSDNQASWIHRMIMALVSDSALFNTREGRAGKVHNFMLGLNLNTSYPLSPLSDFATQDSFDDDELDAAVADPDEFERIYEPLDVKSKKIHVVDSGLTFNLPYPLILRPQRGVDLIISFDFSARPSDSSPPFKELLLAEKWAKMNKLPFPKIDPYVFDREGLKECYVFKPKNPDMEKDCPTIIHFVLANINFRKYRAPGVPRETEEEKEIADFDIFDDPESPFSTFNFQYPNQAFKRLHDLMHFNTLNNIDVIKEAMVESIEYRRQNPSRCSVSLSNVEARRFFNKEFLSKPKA
As to the kind of experiment: Coumarine assay (hydrolysis of 7-hydroxycoumarinyl 6-heptenoate). The class given is biochemical. The following applies: 60 μM 7-hydroxycoumarinyl 6-heptenoate, pH 7.5; read-out: Coumarin IC50.
Procedure: Inhibitors were mixed with 200 μL assay buffer (80 mM Heped, pH 7.5, 1 mM EDTA) containing 60 μM 7-hydroxycoumarinyl 6-heptenoate. The reaction was initiated by adding 4 μg cPLA2 in 50 μL assay buffer. Hydrolysis of the 7-hydroxycounarimyl 6-heptenoate ester was monitored in a fluorometer by exciting at 360 nm and monitoring emission at 460 nm. Enzyme activity is proportional to the increase in emission at 460 nm per minute. In the presence of a cPLA2 inhibitor, the rate of increase is less.
With `COc1cccc(OC)c1S(=O)(=O)NCCc1c(CCCc2ccc(C(=O)O)cc2)c2cc(Cl)ccc2n1C(c1ccccc1)c1ccccc1` [Example 275, 4-{3-[1-benzhydryl-5-chloro-2-(2-{[(2,6-dimethoxyphenyl)sulfonyl]amino}ethyl)-1H-indol-3-yl]propyl}benzoic acid], the 50% inhibitory concentration (IC50) – broadly, the concentration that gives 50% inhibition – was determined as 0.24 µM. `CC(C)Oc1ccccc1S(=O)(=O)NCCc1c(CCOc2ccc(C(=O)O)cc2)c2cc(Cl)ccc2n1C(c1ccccc1)c1ccccc1` [Example 185, 4-(2-{1-Benzhydryl-5-chloro-2-[2-(2-isopropoxy-benzenesulfonylamino)-ethyl]-1H-indol-3-yl}-ethoxy)benzoic acid]: the IC50 is 0.17 µM.

As for `Cc1cc(C)c(S(=O)(=O)NCCc2c(CCOc3ccc(C(=O)O)cc3)c3cc(Cl)ccc3n2C(c2ccccc2)c2ccccc2)c(C)c1` [Example 266, 4-[2-(1-benzhydryl-5-chloro-2-{2-[(mesitylsulfonyl)amino]ethyl}-1H-indol-3-yl)ethoxy]benzoic acid], the IC50 amounted to 0.16 µM. Regarding `O=C(O)c1ccc(CCCc2c(CCNS(=O)(=O)c3ccccc3F)n(C(c3ccccc3)c3ccccc3)c3ccc(Cl)cc23)cc1` [Example 222, 4-{3-[1-Benzhydryl-5-chloro-2-(2-{[(2-fluorophenyl)sulfonyl]amino}ethyl)-1H-indol-3-yl)propyl]benzoic acid], the IC50 came to 0.19 µM. On to `Cc1nn(C)c(C)c1S(=O)(=O)NCCc1c(CCCc2ccc(C(=O)O)cc2)c2cc(Cl)ccc2n1C(c1ccccc1)c1ccccc1` [Example 212, 4-{3-[1-benzhydryl-5-chloro-2-(2-{[(1,3,5-trimethyl-1H-pyrazol-4-yl)sulfonyl]amino}ethyl)-1H-indol-3-yl]propyl}benzoic acid], for which the IC50 is 0.18 µM.

As to `O=C(O)c1ccc(OCCc2c(CCNS(=O)(=O)c3cc(F)c(Cl)cc3F)n(C(c3ccccc3)c3ccccc3)c3ccc(Cl)cc23)cc1` [Example 170, 4-{2-[1-benzhydryl-5-chloro-2-(2-{[(4-chloro-2,5-difluorophenyl)sulfonyl]amino}ethyl)-1H-indol-3-yl]ethoxy}benzoic acid], the concentration for half-maximal inhibition (IC50) is 0.95 µM. The value for `Nc1ccccc1CS(=O)(=O)NCCc1c(CCOc2ccc(C(=O)O)cc2)c2cc(Cl)ccc2n1C(c1ccccc1)c1ccccc1` [Example 16] was 0.98 µM; that for `Cc1cccc(Cl)c1S(=O)(=O)NCCc1c(CCOc2ccc(C(=O)O)c(F)c2)c2cc(Cl)ccc2n1C(c1ccccc1)c1ccccc1` [Example 191, 4-(2-{1-Benzhydryl-5-chloro-2-[2-(2-chloro-6-methyl-benzenesulfonylamino)-ethyl]-1H-indol-3-yl}-ethoxy)-2-fluoro-benzoic acid] was 0.2 µM; that for `O=C(O)c1ccc(CCCc2c(CCNS(=O)(=O)c3cccc(C(F)(F)F)c3)n(C(c3ccccc3)c3ccccc3)c3ccc(Cl)cc23)cc1` [Example 218, 4-(3-{1-Benzhydryl-5-chloro-2-[2-({[3-(trifluoromethyl)phenyl]sulfonyl}amino)ethyl]-1H-indol-3-yl}propyl)benzoic acid] was 0.14 µM.

Take `Cc1cccc(Cl)c1S(=O)(=O)NCCc1c(CCOc2ccc(C(=O)O)cc2)c2cc(Cl)ccc2n1C(c1ccccc1)c1ccccc1` [Example 227, 4-{2-[1-benzhydryl-5-chloro-2-(2-{[(2-chloro-6-methylphenyl)sulfonyl]amino}ethyl)-1H-indol-3-yl]ethoxy}benzoic acid]: the half-inhibitory concentration (IC50) stood at 0.16 µM. The value for `O=C(O)c1ccc(OCCc2c(CCNS(=O)(=O)c3cccc(C(F)(F)F)c3)n(C(c3ccccc3)c3ccccc3)c3ccc(Cl)cc23)cc1` [Example 219, 4-(2-{1-benzhydryl-5-chloro-2-[2-({[3-(trifluoromethyl)phenyl]sulfonyl}amino)ethyl]-1H-indol-3-yl}ethoxy)benzoic acid] was 0.4 µM; that for `CS(=O)(=O)c1ccccc1S(=O)(=O)NCCc1c(CCOc2ccc(C(=O)O)cc2)c2cc(Cl)ccc2n1C(c1ccccc1)c1ccccc1` [Example 205] was 0.37 µM; that for `Cc1nc(-c2ccc(S(=O)(=O)NCCc3c(CCOc4ccc(C(=O)O)cc4)c4cc(Cl)ccc4n3C(c3ccccc3)c3ccccc3)s2)cs1` [Example 177, 4-(2-{1-benzhydryl-5-chloro-2-[2-({[5-(2-methyl-1,3-thiazol-4-yl)thien-2-yl]sulfonyl}amino)ethyl]-1H-indol-3-yl}ethoxy)benzoic acid] was 0.9 µM. Regarding `Cc1c(S(=O)(=O)NCCc2c(CCCc3ccc(C(=O)O)cc3)c3cc(Cl)ccc3n2C(c2ccccc2)c2ccccc2)cnn1-c1ccccc1` [Example 210, 4-{3-[1-benzhydryl-5-chloro-2-(2-{[(5-methyl-1-phenyl-1H-pyrazol-4-yl)sulfonyl]amino}ethyl)-1H-indol-3-yl]propyl}benzoic acid], the concentration for half-maximal inhibition (IC50) is 0.15 µM. `O=C(O)c1ccc(OCCc2c(CCNS(=O)(=O)c3c(F)cccc3C(F)(F)F)n(C(c3ccccc3)c3ccccc3)c3ccc(Cl)cc23)cc1` [Example 269]: the IC50 is 0.15 µM. `O=C(O)c1ccc(OCCc2c(CCNS(=O)(=O)c3ccsc3)n(C(c3ccccc3)c3ccccc3)c3ccc(Cl)cc23)cc1` [Example 178, 4-[2-(1-benzhydryl-5-chloro-2-{2-[(thien-3-ylsulfonyl)amino]ethyl}-1H-indol-3-yl)ethoxy]benzoic acid]: the half-maximal inhibitory concentration (IC50) came out at 0.65 µM. The value for `Cc1c(S(=O)(=O)NCCc2c(CCOc3ccc(C(=O)O)cc3)c3cc(Cl)ccc3n2C(c2ccccc2)c2ccccc2)cnn1-c1ccccc1` [Example 211, 4-{2-[1-benzhydryl-5-chloro-2-(2-{[(5-methyl-1-phenyl-1H-pyrazol-4-yl)sulfonyl]amino}ethyl)-1H-indol-3-yl]ethoxy}benzoic acid] was 0.4 µM; that for `O=C(O)c1ccc(OCCc2c(CCNS(=O)(=O)Cc3cccc(C(F)(F)F)c3)n(C(c3ccccc3)c3ccccc3)c3ccc(Cl)cc23)cc1` [Example 12] was 150 µM. For the compound `Cc1cccc(Cl)c1S(=O)(=O)NCCc1c(CCCc2ccc(C(=O)O)cc2)c2cc(Cl)ccc2n1C(c1ccccc1)c1ccccc1` [Example 226], the IC50 was determined as 0.14 µM.

Regarding `O=C(O)c1ccc(CCCc2c(CCNS(=O)(=O)c3ccsc3)n(C(c3ccccc3)c3ccccc3)c3ccc(Cl)cc23)cc1` [Example 180, 4-[3-(1-benzhydryl-5-chloro-2-{2-[(thien-3-ylsulfonyl)amino]ethyl}-1H-indol-3-yl)propyl]benzoic acid], the IC50 was 0.23 µM.

For the compound `O=C(O)c1ccc(CCCc2c(CCNS(=O)(=O)c3ccc(Cl)c4nonc34)n(C(c3ccccc3)c3ccccc3)c3ccc(Cl)cc23)cc1` [Example 172, 4-{3-[1-benzhydryl-5-chloro-2-(2-{[(7-chloro-2,1,3-benzoxadiazol-4-yl)sulfonyl]amino}ethyl)-1H-indol-3-yl]propyl}benzoic acid], the IC50 was 0.35 µM. In the case of `COc1ccccc1S(=O)(=O)NCCc1c(CCOc2ccc(C(=O)O)cc2)c2cc(Cl)ccc2n1C(c1ccccc1)c1ccccc1` [Example 235, 4-{2-[1-benzhydryl-5-chloro-2-(2-{[(2-methoxyphenyl)sulfonyl]amino}ethyl)-1H-indol-3-yl]ethoxy}benzoic acid] it was 0.18 µM; in that of `O=C(O)c1ccc(CCCc2c(CCNS(=O)(=O)c3c(F)cccc3C(F)(F)F)n(C(c3ccccc3)c3ccccc3)c3ccc(Cl)cc23)cc1` [Example 268, 4-(3-{1-benzhydryl-5-chloro-2-[2-({[2-fluoro-6-(trifluoromethyl)phenyl]sulfonyl}amino)ethyl]-1H-indol-3-yl}propyl)benzoic acid], 0.09 µM.

With `Cc1cccc(C)c1S(=O)(=O)NCCc1c(CCCc2ccc(C(=O)O)cc2)c2cc(Cl)ccc2n1C(c1ccccc1)c1ccccc1` [Example 270, 4-(3-[1-benzhydryl-5-chloro-2-(2-{[(2,6-dimethylphenyl)sulfonyl]amino}ethyl)-1H-indol-3-yl]propyl}benzoic acid], the 50% inhibitory concentration (IC50) turned out to be 0.14 µM.

`CSc1ccccc1S(=O)(=O)NCCc1c(CCOc2ccc(C(=O)O)cc2)c2cc(Cl)ccc2n1C(c1ccccc1)c1ccccc1` [Example 239, 4-(2-{1-benzhydryl-5-chloro-2-[2-({[2-(methylthio)phenyl]sulfonyl}amino)ethyl]-1H-indol-3-yl}ethoxy)benzoic acid]: the concentration for half-maximal inhibition (IC50) was determined as 0.48 µM. As for `Cc1nn(C)c(C)c1S(=O)(=O)NCCc1c(CCOc2ccc(C(=O)O)cc2)c2cc(Cl)ccc2n1C(c1ccccc1)c1ccccc1` [Example 213, 4-{2-[1-benzhydryl-5-chloro-2-(2-{[(1,3,5-trimethyl-1H-pyrazol-4-yl)sulfonyl]amino}ethyl)-1H-indol-3-yl]ethoxy}benzoic acid], the IC50 came out at 0.45 µM.

As to `O=C(O)c1ccc(OCCc2c(CCNS(=O)(=O)CSc3ccc(Cl)c(Cl)c3)n(C(c3ccccc3)c3ccccc3)c3ccc(Cl)cc23)cc1` [Example 220, 4-[2-(1-benzhydryl-5-chloro-2-{2-[({[(3,4-dichlorophenyl)thio]methyl}sulfonyl)amino]ethyl}-1H-indol-3-yl)ethoxy]benzoic acid], the half-inhibitory concentration (IC50) amounted to 0.4 µM.

With `O=C(O)c1ccc(OCCc2c(CCNS(=O)(=O)c3ccccc3F)n(C(c3ccccc3)c3ccccc3)c3ccc(Cl)cc23)cc1` [Example 223], the IC50 is 0.6 µM.
